According to US20260152636A1, “GELLING SOLUTIONS FOR ADMINISTRATION OF COMPOUNDS TO THE INNER EAR” (Spiral Therapeutics, Inc., priority 2020, published 2026):

Legend:
MD patients = conditions: cited from earlier work
in vivo = conditions: both, Hartley, guinea pig, other: intratympanic, 5 μL
Procedure: (§1) An 8-week toxicology study was performed to assess the safety and pharmacokinetics of intratympanic administration of a PEG-trilysine polymer formulation in Hartley guinea pigs. […] Hartley guinea pigs of both sexes [n=46 (23 males and 23 females) were used for the study. Following 3 to 7 days of acclimation, all guinea pigs underwent baseline ABRs tests at 4, 10, and 20 kHz.
(§2) Perilymph samples were collected at terminus at 3 days, 1 week, 4 weeks, and 8 weeks post administration.

[1] = Dexamethasone levels in plasma and perilymph after single IT injection in green monkey; assay type: in vivo, African green monkey (Chlorocebus sabaeus); conditions: through Day 22
Procedure: Information on absorption, distribution and pharmacokinetics of the PEG-trilysine polymer formulation by otic administration were obtained from a pharmacokinetic (PK) and tolerability study conducted in the African green monkey (Chlorocebus sabaeus)
The perilymph and plasma concentrations of the PEG-trilysine polymer formulation were evaluated following a single IT injection. Perilymph and plasma levels of test and control articles were measured after 1, 10 and 22 days. Given the small study size (N=9 enrolled) and number of total ears treated, PK data are presented as descriptive statistics only.
The absorption and distribution of dexamethasone was also investigated in African green monkeys.

[2] = guinea pig, in vivo
Procedure: as §1, §2

Hartley guinea pigs = assay: 8-week safety study, ABR threshold shift after intratympanic injection; assay type: in vivo, guinea pig; conditions: IT injection; Days 3 and 14; positive control
Excerpt: Groups 1-3 were further divided into subgroups with varying survival times up to 8 weeks. The number of ears for the 4-week and 8-week timepoints in this study were powered to detect a 20 dB shift from baseline in the ABR threshold measurement at each of the three test frequencies (1-way t-test; independent means; apriori; power=0.95), using sample data to estimate variability from pilot studies. Auditory brainstem responses and blood sampling were collected at specified in-life timepoints, including terminus. Perilymph sampling, middle ear visualization, and histology sample preparation were performed on specified animals at terminus.

Compound | Incidence of TM perforation (MD patients; end of Phase 1b study, 3 mg or 12 mg single IT injection) [%] | Safety and tolerability (MD patients; single IT injection of 12 mg, formulated with poloxamer 407, unilateral MD) | concentration at 1 week (in vivo; perilymph) [ng/mL] | concentration at 3 days (in vivo; perilymph) [ng/mL] | concentration at 1 week (in vivo; plasma) [ng/mL] | concentration at 3 days (in vivo; plasma) [ng/mL] | Plasma levels of dexamethasone over time [1] | Perilymph Mean (ng/mL) [2] | Plasma Mean (ng/mL) [2] | Improvement in aural fullness (MD patients; IT therapy, one study) [%] | ABR threshold shift (Hartley guinea pigs) [dB]
C[C@@H]1C[C@H]2[C@@H]3CCC4=CC(=O)C=C[C@]4(C)[C@@]3(F)[C@@H](O)C[C@]2(C)[C@@]1(O)C(=O)CO [Dexamethasone, dexamethasone] | 3 | safe, well-tolerated | 1700 | 109 | 3.2 | 5.5 | remained within detectable limits through Day 22 | BLQ | BLQ | – | –
gentamicin | – | – | – | – | – | – | – | – | – | 31 | ≥ 55
